Values joined by “and” are separate entries in the source; they are usually repeats but may differ in a detail not shown here. Equal entries are not always repeated. Where two headings read alike, the source gives them in different places.
Tests used:
[1] = type: in vivo; conditions: rat
Method: (§1) The rat PK (FIG. 6) was assessed with an oral dose of 10 mg/kg and intravenously at 1 mg/kg. […] The PK and brain concentrations were assessed in cohorts of 3 […] for each dosing group and between the plasma vs brain concentrations. For 10 mg/kg oral dosing, the PK parameters are outlined in Table 16 below.
1 mg/kg IV dosing, the PK parameters are outlined in Table 17.

[2] = type: in vivo; conditions: rat, IV 1 mg/kg of 2-Br-4-AcO-DMT * HBr, 4 h, individual rat
Method: as §1
The brain vs. plasma concentrations from oral and IV doses of 2-Br-4-ACO-DMT*HBr are listed in Table 18 via detection of active 2-Br-4-OH-DMT.

mice = assay: Reduction in alcohol consumption; type: in vivo, mouse; conditions: addicted mice
Description: In order to test for the ability to curb alcohol consumption, mice were given 8-20%/alcohol ab libitum for two weeks. The results of alcohol consumption were monitored over two weeks after daily dosing of test compound in relation to positive control (4-AcO-DMT). Further studies extended the experiment to 60 days for three different doses while only dosing the mice every 3 days.

[3] = system: cytokine interleukin 6 (IL-6); assay: IL-6 quantification in HT22 mouse hippocampal neuronal cells; type: cell-based; conditions: LPS stressed, HBr salt, 24 hours
Description: (§2) For neuroplasticity, brain-derived neurotrophic factor (BDNF; FIGS. 3B1 and 3B2) and for inflammation, cytokine interleukin 6 (IL-6; FIGS. 3A1 and 3A2) and TNFα (FIGS. 3C1 and 3C2), were quantified with and without proinflammatory treatment of lipopolysaccharide (LPS). LPS-induced inflammation is a model for neuroinflammation similar to what is seen in patients with neurodegenerative disorders. […] IL-6 is elevated in patients with frontotemporal dementias and other neurodegenerative disorders and especially in patients with disinhibition.

TNFα = TNFα quantification in HT22 mouse hippocampal neuronal cells; type: cell-based; conditions: LPS stressed, HBr salt, 24 hours
Description: as §2

[4] = system: brain-derived neurotrophic factor (BDNF); assay: BDNF quantification in HT22 mouse hippocampal neuronal cells; type: cell-based; conditions: HT22 control cells (no LPS); HBr salt; 24 hours
Description: as §2

[5] = system: metabotropic glutamate receptor 2 (mGlu2); assay: Brain tissue mGlu2 protein expression in prefrontal cortex after in vivo treatment; parameters: species or system mouse; conditions: male C57BL/6J mice, 25 mg/kg daily 18 days
Description: The expression of metabotropic glutamate receptor 2 (mGlu2) in the prefrontal cortex was quantified following in vivo mouse studies. Regulation of the metabotropic glutamate receptor 2 (mGlu2) levels in alcohol seeking rats can reduce relapse behavior.

Structure (SMILES): CN(C)CCc1c(Br)[nH]c2cccc(O)c12 [2-Br-4-OH-DMT, 2-bromo-3-(2-(dimethylamino)ethyl)-1H-indol-4-ol]
- AUC Extr ([1]; 1 mg/kg IV of 2-Br-4-AcO-DMT * HBr, individual rat, 1 mg/kg): 7.66% and 4.06% and 4.54%
- AUC Extr ([1]; 1 mg/kg IV of 2-Br-4-AcO-DMT * HBr, mean of 3 rats): 5.42%
- AUC Extr ([1]; 10 mg/kg PO of 2-Br-4-AcO-DMT * HBr, mean of 3 rats): 4.50%
- Plasma Concentration [2]: BLOQ

Structure (SMILES): CC(=O)Oc1cccc2[nH]c(Br)c(CCN(C)C)c12 [drawing 37]
- Alcohol Consumption, effective dose range (mice): 5 to 40 mg/kg

Structure (SMILES): CC(=O)Oc1cccc2[nH]c(Br)c(CCN(C)C)c12 [2-Br-4-AcO-DMT, 2-bromo-3-(2-(dimethylamino)ethyl)-1H-indol-4-yl acetate]
- IL-6 level [3]: reduces IL-6
- TNFα level (TNFα): reduces IL-6 and TNFα in the stressed LPS cells
- BDNF level [4]: increases neuroplasticity marker BDNF in the control cells
- mGluR2 expression reduction compared with psilacetin ([5]; n=5-6, relative to actin, normalized to vehicle): exceeding the effect of psilacetin
- mGluR2 expression, unstressed mice ([5]; no-stress, prefrontal cortex): reduced expression of mGluR2
- mGluR2 expression, stressed mice ([5]; tube restraint, prefrontal cortex): reduced expression of mGluR2
